Several values for one entry are separate records, joined by “and”; a condition that tells them apart may be missing. Equal values may be shown once.
Legend:
MM1.S cells [1] = assay: Whole cell proteomics of treated MM cells; type: cell-based; settings: omacetaxine 4 h, pomalidomide 24 h, staggered combination
Method: Whole cell proteomics of MM cells treated with the omacetaxine/pomalidomide combination were compared to single agent treatments at a timepoint before substantial apoptosis or cell death began. Although omacetaxine is rapidly cytotoxic to MM cells, the cytotoxicity of pomalidomide occurs after a longer delay, with apoptosis and cell death beginning at 24 h (FIG. 10A). […] For proteomics, MM1.S cells were treated in triplicate with omacetaxine for 4 h, pomalidomide for 24 h, or the staggered combination treatment and compared to untreated controls.
Cells were lysed with RIPA buffer (Thermo Fisher Scientific) and digested according to the FASP protocol. Recovered peptides were dried, desalted, and concentrated on Thermo Scientific Pierce C18 Tips. Cell lysates were analyzed using an Orbitrap Fusion mass spectrometer connected to an EASY-nLC 1200 system (Thermo Fisher Scientific) with a nanoelectrospray ion source. Data was acquired using the Xcaliburm (version 4.1) software. MS/MS spectra were extracted, and Proteome Discoverer Software (ver. 2.1.0.62) was used to convert the raw data into mgf files. The files were then searched against a human database using an in-house Mascot server (Version 2.6, Matrix Science). Scaffold (version 4.8, Proteome Software, Portland, Oreg.) was used to validate MS/MS based peptide and protein identifications. […]

[2] = system: IMiD-resistant relapsed MM patient sample; assay: Two-drug combination matrix in primary MM patient sample, ZIP synergy; type: cell-based, human
Method: Drug combination studies were set up using a full matrix design with myeloma cell lines or primary samples. Synergy was calculated using ZIP delta score via the SnergyFinder online tool (synergyfinder.fimm.fi). Combination index values were calculated using the CompuSyn software (ComboSyn Inc).

[3] = system: luc-MM1.S cells in NSG mice; assay: In vivo protein translation (puromycin incorporation) in luc-MM1.S xenograft; settings: 1, 2 or 3 mg/kg IP; greatest effect at 3 mg/kg
Method: To extend the findings to an in vivo model, the effects of omacetaxine were examined using a firefly luciferase-expressing myeloma cell line, MM1.S (luc-MM1.S) to generate xenografts in NSG mice. The pharmacodynamics of omacetaxine were studied in this model. Mice were injected with luc-MM1.S cells and allowed to establish disease, followed by treatment with 1, 2, or 3 mg/kg omacetaxine, or with the vehicle control by intraperitoneal (IP) injection, followed by puromycin injection one hour later, and sacrificed 1.5 hours later, with bone marrow harvest and […] incorporation by flow cytometry (FIG. 9A).
Protein synthesis levels were determined in vitro utilizing the puromycin analog O-propargyl-puromycin (OP-Puro) in the protein synthesis assay kit (Cayman Chemical) according to manufacturer instructions. […]
For in vivo assessment of omacetaxine, 5×10^5 MM1.S cells stably expressing firefly luciferase were injected intravenously into NSG mice (Jackson Labs, Bar Harbor, Me.) to generate an orthometastatic MM xenograft model. […] Tumor status was assessed by BLI, and the results were analyzed by Living Image (PerkinElmer). Following treatment, the mice were continuously monitored for survival endpoints.

[4] = system: MM cell lines (H929, MM.1S, U266); assay: Seahorse glycolysis stress test (ECAR); type: cell-based; settings: after 4 h
Method: MM cell lines were incubated with pomalidomide for 24 h, omacetaxine for 4 h, or in staggered combination. The cells were washed and resuspended in Agilent Seahorse XF DMEM Medium, pH 7.4 (Agilent Technologies, Santa Clara, Calif.). Glycolytic flux, extracellular acidification rate (ECAR) was measured on a Seahorse XFe96 Analyzer using the Seahorse XF Glycolysis Stress Test Kit according to manufacture instructions (Agilent Technologies).

MM1.S cells [5] = assay: Timecourse of apoptosis and cell death by Annexin V and DAPI flow cytometry; type: cell-based
Text: FIG. 2A depicts the timecourse of induction of apoptosis and cell death by omacetaxine in MM1.S cells as measured by Annexin V and DAPI staining by flow cytometry.
FIG. 10A depicts the timecourse of induction of apoptosis and cell death by pomalidomide in MM1.S cells as measured by annexin V and DAPI staining by flow cytometry.

[6] = system: protein translation in MM cell lines and primary MM cells; assay: OP-Puro protein translation assay in vitro; type: cell-based
Method: To examine whether myeloma cells depend on inherently high protein synthesis, the O-Propargyl-puromycin (OP-Puro) assay was used to measure the rate of amino-acid incorporation into translating ribosomes by flow cytometry.
Protein synthesis levels were determined in vitro utilizing the puromycin analog O-propargyl-puromycin (OP-Puro) in the protein synthesis assay kit (Cayman Chemical) according to manufacturer instructions. For in vivo protein synthesis, engrafted NSG mice were injected IP with 500 μg puromycin (Gibco), then euthanized after 1.5 h, marrow was flushed, and cells stained with anti-puromycin antibody (12D10, Alexa-488, Millipore Sigma), followed by flow cytometry.

COC(=O)C[C@](O)(CCCC(C)(C)O)C(=O)O[C@@H]1C(OC)=C[C@]23CCCN2CCc2cc4c(cc2[C@H]13)OCO4 [omacetaxine, Omacetaxine mepesuccinate]
proteins among the most downregulated versus untreated controls (MM1.S cells [1]): IGL1 and JCHAIN | effect of combination with Pom on IMiD sensitivity of patient MM cells ([2]; IMiD-resistant relapsed patient sample): re-sensitized | ZIP δ-score for synergy with Pom in patient sample ([2]; IMiD-resistant relapsed patient sample HTB-576): 22.68 and 22.7 | protein translation rate in luc-MM1.S cells in vivo [3]: dose-dependent decrease | effect on metabolism of myeloma cell lines (Seahorse, ECAR) [4]: shut down metabolism | time at which cell death began (MM1.S cells [5]): 24 h | time at which induction of apoptosis started (MM1.S cells [5]): 2 h | translation in primary MM samples after treatment ([6]; 50 nM, 2.5 h, 14 primary samples, to near MNC levels): significantly reduced | EC50 ([6]; Homo sapiens, NCI-H929, 2.5 h, H929 MM cell line and primary patient MM cells, read-out: EC50 of inhibition of protein translation): 9 nM | ability to inhibit translation in myeloma cell lines ([6]; omacetaxine 50 nM 2.5 h, bortezomib 6 h, 24 h, 48 h): observed across all myeloma cell lines tested

Reference: patent US20230028293A1, “MULTIPLE MYELOMA COMBINATION THERAPIES BASED ON PROTEIN TRANSLATION INHIBITORS AND IMMUNOMODULATORS” (The Regents of the University of Colorado, a body corporate, priority 2019, published 2023)
